Test results from patent US20250163104A1, “MACROCYCLIC IMMUNOMODULATORS” (priority 2021, published 2025).
Where a SMILES comes first, the peptide text is derived from it. Bridges are numbered along the chain shown (N, C = ends). [ ]: non-standard residue; d: D form. The star is where a group is joined. ξ: configuration not given here. Bip(4'-COOH) = N[C@@H](Cc1ccc(-c2ccc(C(=O)O)cc2)cc1)C(=O)O; Phe(3-CF3) = N[C@@H](Cc1cccc(C(F)(F)F)c1)C(=O)O; Ala(morpholin-4-yl) = N[C@@H](CN1CCOCC1)C(=O)O; Phe(4-COOH) = N[C@@H](Cc1ccc(C(=O)O)cc1)C(=O)O; Bip = N[C@@H](Cc1ccc(-c2ccccc2)cc1)C(=O)O; Phe(3-Me) = Cc1cccc(C[C@H](N)C(=O)O)c1; Phe(4-Me) = Cc1ccc(C[C@H](N)C(=O)O)cc1; aIle = CC[C@@H](C)[C@H](N)C(=O)O; 4Pal = N[C@@H](Cc1ccncc1)C(=O)O; Cha = N[C@@H](CC1CCCCC1)C(=O)O; Cit = NC(=O)NCCC[C@H](N)C(=O)O; Ile(3ξ) = CCC(C)[C@H](N)C(=O)O; Thr(3ξ) = CC(O)[C@H](N)C(=O)O; Carboxymethyl = O=C(O)C*; Nle = CCCC[C@H](N)C(=O)O; Orn = NCCC[C@H](N)C(=O)O; Dab = NCC[C@H](N)C(=O)O; Dap = NC[C@H](N)C(=O)O; Piv = CC(C)(C)C(=O)*

biological target: T1, human PD-1 / PD-L1-Ig binding on Jurkat cell line over-expressing human PD-1 (Jurkat-PD-1) (Homo sapiens, UniProt Q15116); assay: Jurkat-PD-1 Cell Binding High-Content Screening Assay (CBA); assay type: cell-based; settings: Jurkat-PD-1 cells, PE-labeled PD-L1-Ig 20 nM final; read-out: Jurkat HPD1_PDL1 IC50
T1 construct: expressed in transfected cells; host or cells: Jurkat
Outline: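 PE-PD-L1-Ig 20 nM final; cells in DMEM/10% FCS; cpd pre-incubation 2 h, 37° C; ligand 1 h; PFA fix + Hoechst 33342; high-content imaging read-out.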

T1 sequence (Q15116 25-288): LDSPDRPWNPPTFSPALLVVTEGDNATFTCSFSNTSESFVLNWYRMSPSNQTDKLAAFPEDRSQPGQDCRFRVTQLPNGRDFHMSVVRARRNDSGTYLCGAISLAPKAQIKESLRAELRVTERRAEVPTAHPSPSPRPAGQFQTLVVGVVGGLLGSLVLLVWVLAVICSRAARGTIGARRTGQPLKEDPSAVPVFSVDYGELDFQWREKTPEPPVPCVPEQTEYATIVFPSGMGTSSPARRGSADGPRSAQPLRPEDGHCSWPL

IC50	SMILES
59.9 nM	CC[C@@H](C)[C@@H]1NC(=O)[C@H](Cc2ccc(-c3ccccc3)cc2)NC(=O)[C@H](C(C)C)NC(=O)[C@H](Cc2cccc(C)c2)NC(=O)[C@H](CC(=O)O)NC(=O)[C@H](Cc2ccc(O)cc2)NC(=O)[C@H](CC(N)=O)NC(=O)CSC[C@@H](C(N)=O)NC(=O)[C@H]([C@@H](C)O)NC(=O)[C@H](C(C)C)NC(=O)[C@H](CC(C)C)NC(=O)[C@H](CCN)NC(=O)[C@@H](CC(C)C)NC(=O)[C@H](CCCN)NC1=O [Compound 1657] ({CH2CO}-NYD[Phe(3-Me)]V[Bip][aIle][Orn][dL][Dab]LVTC-NH2; thioether N-14)
29.6 nM	CC(C)C[C@@H]1NC(=O)[C@H](CCN)NC(=O)[C@@H](CC(C)C)NC(=O)[C@H](CCN)NC(=O)[C@H](CCC(=O)O)NC(=O)[C@H](Cc2ccc(-c3ccccc3)cc2)NC(=O)[C@H](C(C)C)NC(=O)[C@H](Cc2c[nH]c3ccccc23)NC(=O)[C@H](CC(=O)O)NC(=O)[C@H](Cc2ccc(OCC(=O)O)cc2)NC(=O)[C@H](Cc2ccncc2)NC(=O)CSC[C@@H](C(=O)N[C@@H](C)C(N)=O)NC(=O)[C@H](CO)NC(=O)[C@H](C(C)C)NC1=O [Compound 1266] ({CH2CO}-[4Pal]Y(Carboxymethyl)DWV[Bip]E[Dab][dL][Dab]LVSCA-NH2; thioether N-14)
305 nM	Cc1ccc(C[C@@H]2NC(=O)[C@H](CCN)NC(=O)[C@@H](CC(C)C)NC(=O)[C@H](CCCN)NC(=O)[C@H](CCC(=O)O)NC(=O)[C@H](Cc3ccc(-c4ccccc4)cc3)NC(=O)[C@H](C(C)C)NC(=O)[C@H](Cc3c[nH]c4ccccc34)NC(=O)[C@H](CC(=O)O)NC(=O)[C@H](Cc3ccc(OCC(=O)O)cc3)NC(=O)[C@H](CN)NC(=O)CSC[C@@H](C(=O)N[C@@H](C)C(N)=O)NC(=O)[C@H]([C@@H](C)O)NC(=O)[C@H](C(C)C)NC2=O)cc1 [Compound 1471] ({CH2CO}-[Dap]Y(Carboxymethyl)DWV[Bip]E[Orn][dL][Dab][Phe(4-Me)]VTCA-NH2; thioether N-14)
10.8 nM	CCCC[C@@H]1NC(=O)[C@H](CCN)NC(=O)[C@@H](CC(C)C)NC(=O)[C@H](CCCN)NC(=O)[C@H](C(C)C)NC(=O)[C@H](Cc2ccc(-c3ccccc3)cc2)NC(=O)[C@H](C(C)C)NC(=O)[C@H](Cc2c[nH]c3ccccc23)NC(=O)[C@H](CC(=O)O)NC(=O)[C@H](Cc2ccc(O)cc2)NC(=O)[C@H](Cc2ccc(OCC(=O)O)cc2)NC(=O)CSC[C@@H](C(=O)N[C@@H](C)C(N)=O)NC(=O)[C@H]([C@@H](C)O)NC(=O)[C@H](C(C)C)NC1=O [Compound 1170] ({CH2CO}-Y(Carboxymethyl)YDWV[Bip]V[Orn][dL][Dab][Nle]VTCA-NH2; thioether N-14)
23.6 nM	Cc1cccc(C[C@@H]2NC(=O)[C@H](CC(=O)O)NC(=O)[C@H](Cc3ccc(OCC(=O)O)cc3)NC(=O)[C@H](CN)NC(=O)CSC[C@@H](C(=O)N[C@@H](CCNC(=O)C(C)(C)C)C(N)=O)NC(=O)[C@H]([C@@H](C)O)NC(=O)[C@H](C(C)C)NC(=O)[C@H](CC3CCCCC3)NC(=O)[C@H](CCN)NC(=O)[C@@H](CC(C)C)NC(=O)[C@H](CCN)NC(=O)[C@H](Cc3ccc(OCC(=O)O)cc3)NC(=O)[C@H](Cc3ccc(-c4ccccc4)cc3)NC(=O)[C@H](Cc3ccc(OCC(=O)O)cc3)NC2=O)c1 [Compound 2061] ({CH2CO}-[Dap]Y(Carboxymethyl)D[Phe(3-Me)]Y(Carboxymethyl)[Bip]Y(Carboxymethyl)[Dab][dL][Dab][Cha]VTC[Dab](Piv)-NH2; thioether N-14)
15.5 nM	CCC(C)[C@@H]1NC(=O)[C@H](Cc2ccc(-c3ccccc3)cc2)NC(=O)[C@H](C(C)C)NC(=O)[C@H](Cc2cccc(C)c2)NC(=O)[C@H](CC(=O)O)NC(=O)[C@H](Cc2ccc(C(=O)O)cc2)NC(=O)[C@H](Cc2ccncc2)NC(=O)CSC[C@@H](C(=O)N[C@@H](CC(N)=O)C(N)=O)NC(=O)[C@H](CO)NC(=O)[C@H](C(C)C)NC(=O)[C@H](CC2CCCCC2)NC(=O)[C@H](CCN)NC(=O)[C@@H](CC(C)C)NC(=O)[C@H](CCCN)NC1=O (stereo partly drawn) [Compound 2298] ({CH2CO}-[4Pal][Phe(4-COOH)]D[Phe(3-Me)]V[Bip][Ile(3ξ)][Orn][dL][Dab][Cha]VSCN-NH2; thioether N-14)
54.6 nM	Cc1cccc(C[C@@H]2NC(=O)[C@H](CCN)NC(=O)[C@@H](CC(C)C)NC(=O)[C@H](CCCN)NC(=O)[C@H](CCC(=O)O)NC(=O)[C@H](Cc3ccc(-c4ccccc4)cc3)NC(=O)[C@H](C(C)C)NC(=O)[C@H](Cc3c[nH]c4ccccc34)NC(=O)[C@H](CC(=O)O)NC(=O)[C@H](Cc3ccc(OCC(=O)O)cc3)NC(=O)[C@H](CN)NC(=O)CSC[C@@H](C(=O)N[C@@H](C)C(N)=O)NC(=O)[C@H]([C@@H](C)O)NC(=O)[C@H](C(C)C)NC2=O)c1 [Compound 1470] ({CH2CO}-[Dap]Y(Carboxymethyl)DWV[Bip]E[Orn][dL][Dab][Phe(3-Me)]VTCA-NH2; thioether N-14)
24.8 nM	CC(C)C[C@@H]1NC(=O)[C@H](Cc2c[nH]c3ccccc23)NC(=O)[C@H](CC(=O)O)NC(=O)[C@H](Cc2ccc(OCC(=O)O)cc2)NC(=O)[C@H](C(C)O)NC(=O)CSC[C@@H](C(=O)N[C@@H](CC(N)=O)C(N)=O)NC(=O)[C@H](CO)NC(=O)[C@H](C(C)C)NC(=O)[C@H](CC2CCCCC2)NC(=O)[C@H](CCN)NC(=O)[C@@H](CC(C)C)NC(=O)[C@H](CCCN)NC(=O)[C@H](C(C)O)NC(=O)[C@H](Cc2ccc(-c3ccccc3)cc2)NC1=O (stereo partly drawn) [Compound 2559] ({CH2CO}-[Thr(3ξ)]Y(Carboxymethyl)DWL[Bip][Thr(3ξ)][Orn][dL][Dab][Cha]VSCN-NH2; thioether N-14)
259 nM	CC[C@H](C)[C@@H]1NC(=O)[C@H](Cc2ccc(-c3ccccc3)cc2)NC(=O)[C@H](C(C)C)NC(=O)[C@H](Cc2cccc(C)c2)NC(=O)[C@H](CC(=O)O)NC(=O)[C@H](Cc2ccc(N=[N+]=[N-])cc2)NC(=O)[C@H](Cc2ccncc2)NC(=O)CSC[C@@H](C(=O)N[C@@H](C)C(N)=O)NC(=O)[C@H]([C@@H](C)O)NC(=O)[C@H](C(C)C)NC(=O)[C@H](CC2CCCCC2)NC(=O)[C@H](CCN)NC(=O)[C@@H](CC(C)C)NC(=O)[C@H](CCCN)NC1=O [Compound 2240]
6.5 nM	CCC(C)[C@@H]1NC(=O)[C@H](Cc2ccc(-c3ccccc3)cc2)NC(=O)[C@H](C(C)C)NC(=O)[C@H](Cc2c[nH]c3ccccc23)NC(=O)[C@H](CC(=O)O)NC(=O)[C@H](Cc2ccc(OCC(=O)O)cc2)NC(=O)[C@H](Cc2ccncc2)NC(=O)CSC[C@@H](C(=O)N[C@@H](C)C(N)=O)NC(=O)[C@H](C(C)O)NC(=O)[C@H](C(C)C)NC(=O)[C@H](CC2CCCCC2)NC(=O)[C@H](CCN)NC(=O)[C@@H](CC(C)C)NC(=O)[C@H](CCCN)NC1=O (stereo partly drawn) [Compound 2519]
44.4 nM	CC(C)C[C@@H]1NC(=O)[C@H](CCCCN)NC(=O)[C@@H](CC(C)C)NC(=O)[C@H](CCN)NC(=O)[C@H](Cc2cnc[nH]2)NC(=O)[C@H](Cc2ccc(-c3ccccc3)cc2)NC(=O)[C@H](C(C)C)NC(=O)[C@H](Cc2c[nH]c3ccccc23)NC(=O)[C@H](CC(=O)O)NC(=O)[C@H](Cc2ccc(O)cc2)NC(=O)[C@H](CC(N)=O)NC(=O)CSC[C@@H](C(=O)NCC(N)=O)NC(=O)[C@H](CO)NC(=O)[C@H](C(C)C)NC1=O [Compound 1139] ({CH2CO}-NYDWV[Bip]H[Dab][dL]KLVSCG-NH2; thioether N-14)
2.2 nM	CC(C)C[C@H]1NC(=O)[C@H](CCCN)NC(=O)[C@H](Cc2ccc(C(=O)O)cc2)NC(=O)[C@H](Cc2ccc(-c3ccccc3)cc2)NC(=O)[C@H](Cc2ccc(-c3ccc(C(=O)O)cc3)cc2)NC(=O)[C@H](Cc2cccc(C(F)(F)F)c2)NC(=O)[C@H](CC(=O)O)NC(=O)[C@H](Cc2ccc(C(=O)O)cc2)NC(=O)[C@H](CN2CCOCC2)NC(=O)CSC[C@@H](C(=O)N[C@@H](CCN)C(N)=O)NC(=O)[C@H](CCC(=O)O)NC(=O)[C@H](C(C)C)NC(=O)[C@H](CC2CCCCC2)NC(=O)[C@H](CCN)NC1=O [Example 2735] ({CH2CO}-[Ala(morpholin-4-yl)][Phe(4-COOH)]D[Phe(3-CF3)][Bip(4'-COOH)][Bip][Phe(4-COOH)][Orn][dL][Dab][Cha]VEC[Dab]-NH2; thioether N-14)
70.9 nM	CCCC[C@@H]1NC(=O)[C@H](CCCNC(=N)N)NC(=O)[C@@H](CC(C)C)NC(=O)[C@H](CCCN)NC(=O)[C@H]([C@@H](C)CC)NC(=O)[C@H](Cc2ccc(-c3ccccc3)cc2)NC(=O)[C@H](C(C)C)NC(=O)[C@H](Cc2c[nH]c3ccccc23)NC(=O)[C@H](CC(=O)O)NC(=O)[C@H](Cc2ccc(O)cc2)NC(=O)[C@H](CC(N)=O)NC(=O)CSC[C@@H](C(=O)N[C@@H](C)C(N)=O)NC(=O)[C@H]([C@@H](C)O)NC(=O)[C@H](C(C)C)NC1=O [Compound 1151] ({CH2CO}-NYDWV[Bip]I[Orn][dL]R[Nle]VTCA-NH2; thioether N-14)
13 nM	CC(C)C[C@@H]1NC(=O)[C@H](CCN)NC(=O)[C@@H](CC(C)C)NC(=O)[C@H](CCCN)NC(=O)[C@H](CCCNC(N)=O)NC(=O)[C@H](Cc2ccc(-c3ccccc3)cc2)NC(=O)[C@H](C(C)C)NC(=O)[C@H](Cc2c[nH]c3ccccc23)NC(=O)[C@H](CC(=O)O)NC(=O)[C@H](Cc2ccc(OCC(=O)O)cc2)NC(=O)[C@H](Cc2ccncc2)NC(=O)CSC[C@@H](C(=O)N[C@@H](C)C(N)=O)NC(=O)[C@H]([C@@H](C)O)NC(=O)[C@H](C(C)C)NC1=O [Compound 1042] ({CH2CO}-[4Pal]Y(Carboxymethyl)DWV[Bip][Cit][Orn][dL][Dab]LVTCA-NH2; thioether N-14)
5.3 nM	Cc1cccc(C[C@@H]2NC(=O)[C@H](CC(=O)O)NC(=O)[C@H](Cc3ccc(C(=O)O)cc3)NC(=O)[C@H](Cc3ccncc3)NC(=O)CSC[C@@H](C(=O)N[C@@H](CC(N)=O)C(N)=O)NC(=O)[C@H](CO)NC(=O)[C@H](C(C)C)NC(=O)[C@H](CC3CCCCC3)NC(=O)[C@H](CCN)NC(=O)[C@@H](CC(C)C)NC(=O)[C@H](CCCN)NC(=O)[C@H](Cc3ccc(OCC(=O)O)cc3)NC(=O)[C@H](Cc3ccc(-c4ccccc4)cc3)NC(=O)[C@H](Cc3ccc(OCC(=O)O)cc3)NC2=O)c1 [Compound 2303] ({CH2CO}-[4Pal][Phe(4-COOH)]D[Phe(3-Me)]Y(Carboxymethyl)[Bip]Y(Carboxymethyl)[Orn][dL][Dab][Cha]VSCN-NH2; thioether N-14)
